Series [1] concerns HBsAg secretion. The series is described as follows: Inhibition experiment on HBsAg secretion (HepG 2,2,15 cells, ELISA). The series is classed as cell-based. The note with it: Hepatitis B virus, HepG2.2.15, read-out: HBsAg IC50. The text has this: (§1) The chromosomal integration of HepG2,2,15 cells (SELLS, PNAS, 1987 and SELLS, JV, 1988) has a complete HBV genome and stably expresses viral RNA and viral proteins. HepG2,2,15 cells are capable of secreting mature hepatitis B virus particles and HBsAg into the culture medium. Virus particles DNA and HBsAg secreted by HepG 2,2,15 cells can be quantified by qPCR and ELISA, and the effects of compounds on viral replication and HBsAg secretion can be detected.
HepG 2,2,15 cells were inoculated with 8,000 per cell to 96-well cell culture plates in duplicate, and were cultured for 3 days until the cells grew to full-hole. Cells were treated with 4-fold serial dilutions of compounds for 10 days, and were given once every other day. The final concentration of DMSO in all pores was 0.5% and DMSO was used as a drug-free control. The supernatant was collected for quantitative detection of HBsAg on day 11.
The level of HBsAg secreted by the cells after treatment of the compound was detected by ELISA method, and the method used a hepatitis B surface antigen diagnostic kit (Shanghai Kehua Biotech Co., Ltd. S10910113). 25 μL of the supernatant to be assayed (PBS was diluted to 75 μL) was added to per well in the ELISA plate, and the kit positive control and negative control were set. The ELIS A plate was blocked with a cover paper and incubated at 37° C. for 60 minutes. The ELISA plate was taken out, and the cover paper was teared off, and 50 μL of enzyme conjugate was added to each well. The ELISA plate was oscillated on the shaker for 10 seconds, blocked with a cover paper and incubated at 37° C. for 30 minutes. The ELISA plate was taken out, the cover paper was teared off, and the ELISA plate was washed 5 times: each time the liquid in the hole was discarded, and the washing liquid was filled into the holes, left to stand for 60 seconds, dried, and the liquid residue was patted to dry on the absorbent paper. A freshly prepared mixture of Developer A and Developer B was added to all wells immediately after washing: 100 μL per well. The ELISA plate was oscillated on the shaker for 10 seconds, blocked with a cover paper and incubated at 37° C. for 30 minutes. 50 μL of stop solution was added to all wells. Absorbance was read on the Envision plate reader at a wavelength of 450 nm.
Concentration-HBsAg OD450 was processed using Graphpad Prism 5 software, and IC50 of compounds inhibiting against HBsAg secretion was calculated by four-parameter nonlinear regression model.
(ELISA stands for enzyme-linked immunosorbent assay.)

The nature of series [2]: PK test experiments in SD rats. The series is classed as in vivo. Set-up: VSS: unit not given here. Conditions: for AUC(0-inf) / AUC(0-t) / Cmax / clearance: male, rat, plasma. As for the experimental part: The PK test in vivo of the compound of the present invention in SD rats (body weight 200-250 g, male, age 2-3 months, 3 per group with oral administration, 3 per group with intravenous injection) The SD rat was administered orally with 2.5 mg/kg or 5 mg/kg of the compound tested or intravenously injected with 0.5 mg/kg or 1 mg/kg of the compound tested. After administration, venous blood was collected at time points (0.083, 0.25, 0.5, 1, 2, 5, 7 and 24 hours) and collected in an anticoagulation tube to which EDTA-K2 was added. Plasma samples were extracted by liquid-liquid extraction and quantitatively analyzed by multiple reaction ion monitoring (MRM) on a triple quadrupole tandem mass spectrometer. Pharmacokinetic parameters were calculated using a noncompartmental method by WinNonLin 6.3 software.

The test system of series [3] is HBV DNA replication. The experiment in a line: Inhibition experiment on HBV virus replication (HepG 2,2,15 cells, supernatant HBV DNA by qPCR). The series is classed as cell-based. Conditions: Hepatitis B virus, HepG2.2.15, 10 days treatment, supernatant HBV DNA on day 11.
Excerpt: as §1
HepG 2,2,15 cells were inoculated with 8,000 per cell to 96-well cell culture plates in duplicate, and were cultured for 3 days until the cells grew to full-hole. Cells were treated with 4-fold serial dilutions of compounds for 10 days, and were given once every other day. The final concentration of DMSO in all pores was 0.5% and DMSO was used as a drug-free control. The supernatant was collected for quantitative detection of HBV DNA on day 11.
Viral genomic DNA was detected by qPCR method, and HBV primers were as follows: […]
The SYBR Premix Ex Taq D-Takara DRR081S kit was used, and 1 μL of cell culture supernatant was used as a template. A standard curve was made using a plasmid containing the HBV genome, and the viral copy number was calculated using the standard curve. Concentration-virus copy number was processed using Graphpad Prism 5 software, and IC50 of compounds inhibiting virus replication was calculated by four-parameter nonlinear regression model.
For orientation: In qPCR the cycle at which signal appears reflects the starting amount.

The pIC50 is −log10 of the IC50, conventionally taken in molar units. In general, AUC(0-inf) refers to the area under the concentration-time curve extrapolated to infinity. One may read the AUC(0-t) as exposure summed from dosing to a finite time, without extrapolation to infinity. As usually defined, the Cmax is the highest concentration seen after dosing. Broadly, the clearance is the volume of plasma or blood freed of the substance per unit of time.

pIC50: −log10 of the molar value. A value given as a limit tells only on which side of the number the result lay.

For the compound `COCCCOc1cc2c(c3c1OCC3)-c1cc(=O)c(C(=O)O)cn1C(C(C)C)C2` (stereo not drawn) [Example 2, 7-Isopropyl-4-(3-methoxypropoxy)-11-oxo-2,6,7,11-tetrahydro-1H-furo[2,3-h]pyrido[2,1-a]isoquinoline-10-carboxylic Acid], the pIC50 in series [1] is 8.84. In series [2] (IV, 1 mg/kg), this compound returned a VSS of 1.8, an AUC(0-inf) of 1330 ng·h/mL, an AUC(0-t) of 1210 ng·h/mL and a Cmax of 738 ng/mL. The clearance in series [2] (IV, 1 mg/kg) was found to be 12.6 mL/min/kg. In series [2] (PO, 5 mg/kg), this compound registered an F of 174.5%, an AUC(0-inf) of 10600 ng·h/mL, an AUC(0-t) of 10600 ng·h/mL and a Cmax of 1860 ng/mL. In series [3], this compound had a negative logarithm of the IC50 (pIC50) of 8.92.
Consider `CC(C)C1Cc2cc(OCCC3CC3)c3c(c2-c2cc(=O)c(C(=O)O)cn21)CCO3` (stereo not drawn) [Example 3, 4-(2-Cyclopropylethoxy)-7-isopropyl-11-oxo-2,6,7,11-tetrahydro-1H-furo[2,3-h]pyrido[2,1-a]isoquinoline-10-carboxylic Acid], for which, in series [1], the pIC50 is 8.85. In series [2] (IV, 1 mg/kg), this compound displayed a VSS of 1.5, an AUC(0-inf) of 1760 ng·h/mL, an AUC(0-t) of 1630 ng·h/mL and a Cmax of 744 ng/mL. Moreover, in series [2] (IV, 1 mg/kg), the clearance worked out at 9.45 mL/min/kg. In series [2] (PO, 5 mg/kg), this compound showed an F of 167.4%, an AUC(0-inf) of 14800 ng·h/mL, an AUC(0-t) of 14700 ng·h/mL and a maximum concentration (Cmax) of 1810 ng/mL. In series [3], the pIC50 is 8.80.
For the compound `CC(C)C1Cc2cc(-c3cnn(C(C)C)c3)c3c(c2-c2cc(=O)c(C(=O)O)cn21)CCO3` (stereo not drawn) [Example 9, 7-Isopropyl-4-(1-isopropyl-1H-pyrazol-4-yl)-11-oxo-2,6,7,11-tetrahydro-1H-furo[2,3-h]pyrido[2,1-a]isoquinoline-10-carboxylic Acid], in series [1], the pIC50 is 8.55. In series [2] (IV, 1 mg/kg), this compound displayed a VSS of 2.2, an AUC(0-inf) of 1190 ng·h/mL, an AUC(0-t) of 1180 ng·h/mL and a Cmax of 641 ng/mL. In series [2] (IV, 1 mg/kg), this compound had a clearance of 14 mL/min/kg. Also, in series [2] (PO, 5 mg/kg), the F is reported as 94%, the AUC(0-inf) amounted to 5590 ng·h/mL, the AUC(0-t) was determined as 5560 ng·h/mL and the concentration peaked (Cmax) at 1630 ng/mL. In addition, the pIC50 in series [3] was 8.96.
With `CC1(C)CCC2c3cc(OCCC4CC4)c4c(c3-c3cc(=O)c(C(=O)O)cn3N21)CCO4` (stereo not drawn) [Example 13, 5-(2-Cyclopropylethoxy)-1,1-dimethyl-10-oxo-2,3,3a,7,8,10-hexahydro-1H-furo[3,2-f]pyrido[1,2-c]pyrrolo[2,1-a]phthalazine-11-carboxylic Acid], in series [1], the pIC50 is 9.47. In series [2] (IV, 1 mg/kg), this compound yielded a VSS of 1.4, an AUC(0-inf) of 2860 ng·h/mL, an AUC(0-t) of 2830 ng·h/mL and a Cmax of 1000 ng/mL. The clearance in series [2] (IV, 1 mg/kg) was found to be 5.84 mL/min/kg. In series [2] (PO, 5 mg/kg), this compound returned an F of 129%, an AUC(0-inf) of 18400 ng·h/mL, an AUC(0-t) of 18300 ng·h/mL and a Cmax of 1700 ng/mL. This compound also gave a pIC50 in series [3] of over 9.62.
As to `CC(C)N1Cc2cc(-c3cnn(C(C)C)c3)c3c(c2-c2cc(=O)c(C(=O)O)cn21)CCO3` [Example 17, 7-Isopropyl-4-(1-isopropyl-11-pyrazol-4-yl)-11-oxo-2,6,7,11-tetrahydro-1H-furo[2,3-h]pyrido[2,1-a]phthalazine-10-carboxylic Acid], the pIC50 in series [1] is 8.49. Also, in series [2] (IV, 1 mg/kg), the VSS was found to be 1.01, the AUC(0-inf) came out at 1640 ng·h/mL, the AUC(0-t) was 1610 ng·h/mL and the peak concentration (Cmax) came to 932 ng/mL. In series [2] (IV, 1 mg/kg), the clearance is 10.1 mL/min/kg. In series [2] (PO, 5 mg/kg), this compound yielded an F of 130.6%, an AUC(0-inf) of 10700 ng·h/mL, an AUC(0-t) of 10700 ng·h/mL and a Cmax of 1620 ng/mL. In series [3], this compound gave a pIC50 of 8.82.
For the compound `CC(C)C1Cc2cc(C#CC3CC3)c3c(c2-c2cc(=O)c(C(=O)O)cn21)CCO3` (stereo not drawn) [Example 31, 4-(Cyclopropylethynyl)-7-isopropyl-11-oxo-2,6,7,11-tetrahydro-1H-furo [2,3-h]pyrido[2,1-a]isoquinoline-10-carboxylic Acid], the pIC50 in series [1] is 8.86; in series [3] it was 9.14.
For `CC(C)C1Cc2cc(-c3cnn(C4CCC4)c3)c3c(c2-c2cc(=O)c(C(=O)O)cn21)CCO3` (stereo not drawn) [Example 33, 4-(1-Cyclobutyl-1H-pyrazol-4-yl)-7-isopropyl-11-oxo-2,6,7,11-tetrahydro-1H-furo[2,3-h]pyrido[2,1-a]isoquinoline-10-carboxylic Acid] the same measures were 8.87 and 8.91.
Turning to `CC(C)C1Cc2cc(-c3cnn(C4CCOCC4)c3)c3c(c2-c2cc(=O)c(C(=O)O)cn21)CCO3` (stereo not drawn) [Example 34, 7-Isopropyl-11-oxo-4-(1-(tetrahydro-2H-pyran-4-yl)-1H-pyrazol-4-yl)-2,6,7,11-tetrahydro-1H-furo[2,3-h]pyrido[2,1-a]isoquinoline-10-carboxylic Acid], the pIC50 in series [1] is 8.63; in series [3] it was 8.43.
For `CC(C)C1Cc2cc(-c3cnn(C4COC4)c3)c3c(c2-c2cc(=O)c(C(=O)O)cn21)CCO3` (stereo not drawn) [Example 35, 7-Isopropyl-4-(1-(oxetan-3-yl)-1H-pyrazol-4-yl)-11-oxo-2,6,7,11-tetra hydro-1H-furo[2,3-h]pyrido[2,1-a]isoquinoline-10-carboxylic Acid] the same measures were 8.48 and 8.63.
On the same counts, the results for `COCCCOc1cc2c(c3c1OC(C)(C)C3)-c1cc(=O)c(C(=O)O)cn1C(C(C)C)C2` (stereo not drawn) [Example 39, 7-Isopropyl-4-(3-methoxypropoxy)-2,2-dimethyl-11-oxo-2,6,7,11-tetrahydro-1H-furo[2,3h]pyrido[2,1-a]isoquinoline-10-carboxylic Acid] are 9.04 and 8.78.
On the same counts, the results for `CC(C)C1Cc2cc(OCCC3CC3)c3c(c2-c2cc(=O)c(C(=O)O)cn21)CC(C)(C)O3` (stereo not drawn) [Example 40, 4-(2-Cyclopropylethoxy)-7-isopropyl-2,2-dimethyl-11-oxo-2,6,7,11-tetrahydro-1H-furo[2,3-h]pyrido[2,1-a]isoquinoline-10-carboxylic Acid] are 9.27 and 8.84.
As to `CC(C)C1Cc2cc(-c3cnn(C(F)F)c3)c3c(c2-c2cc(=O)c(C(=O)O)cn21)CC(C)(C)O3` (stereo not drawn) [Example 41, 4-(1-(Difluoromethyl)-1H-pyrazol-4-yl)-7-isopropyl-2,2-dimethyl-11-oxo-2,6,7,11-tetrahydro-1H-furo[2,3-h]pyrido[2,1-a]isoquinoline-10-carboxylic Acid], the figures for the pIC50 in series [1] and in series [3] were 9.27 and 8.68, respectively.

(Values after patent publication US11447498B2, “Fused tetracyclic compounds and uses thereof in medicine” (SUNSHINE LAKE PHARMA CO., LTD., priority 2018, dated 2022).)
